What is called inhibition is the relative decrease from the control value, in per cent.

Structures are written as SMILES.

The target in the assay is mRNA-capping enzyme (Homo sapiens) (UniProt O60942). The experiment in a line: RNGTT phosphatase activity inhibitors, biochemical, DiFMUP fluorescence, recombinant (AID 406). The note with it: at 50 µM, stronger effect = higher value.
Sequence of mRNA-capping enzyme (Homo sapiens) (O60942 whole entry, looked up): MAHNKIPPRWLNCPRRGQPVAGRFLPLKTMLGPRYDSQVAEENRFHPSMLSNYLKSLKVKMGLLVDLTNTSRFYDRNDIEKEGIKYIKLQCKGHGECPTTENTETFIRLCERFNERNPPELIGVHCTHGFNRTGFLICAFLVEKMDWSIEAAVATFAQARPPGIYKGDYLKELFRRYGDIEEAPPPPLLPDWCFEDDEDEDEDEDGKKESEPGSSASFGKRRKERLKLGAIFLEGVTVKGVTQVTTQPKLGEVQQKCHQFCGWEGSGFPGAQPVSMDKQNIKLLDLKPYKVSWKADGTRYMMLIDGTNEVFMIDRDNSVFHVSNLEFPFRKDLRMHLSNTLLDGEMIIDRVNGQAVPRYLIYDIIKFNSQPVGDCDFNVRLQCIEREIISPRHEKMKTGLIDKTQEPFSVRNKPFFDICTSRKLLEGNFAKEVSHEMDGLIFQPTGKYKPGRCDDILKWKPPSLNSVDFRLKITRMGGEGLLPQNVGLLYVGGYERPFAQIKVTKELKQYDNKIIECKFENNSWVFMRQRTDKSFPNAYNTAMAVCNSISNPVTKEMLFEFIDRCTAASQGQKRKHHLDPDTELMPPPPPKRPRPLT
As for `OO.OO.[K+].[O]=[V].c1cnc2c(c1)ccc1cccnc12`, the inhibition is 22%.

As for `CC(C)(c1ccc(NS(=O)(=O)C(F)(F)F)cc1)c1ccc(C(C)(C)c2ccc(NS(=O)(=O)C(F)(F)F)cc2)cc1`, the inhibition is 37%.

Consider `CC(=O)c1ccc2c(c1)C1C=CCC1C(C(=O)O)N2` (configuration not stated), for which the inhibition is 41%.

In the case of `O=C1NC(=S)S/C1=C\C=C\c1ccc([N+](=O)[O-])o1`, the inhibition was 60%.

Consider `O=C1NC(=S)NC(=O)C1=C/C=C/c1ccco1`, for which the inhibition is 22%.

Regarding `OO.OO.[K+].[O]=[V].c1ccc(-c2ccccn2)nc1`, the inhibition is 41%.

For the compound `c1ccc([C@H]2CN3CCSC3=N2)cc1`, the inhibition is 29%.

On to `O=C(O)c1ccc([O-])cn1.OO.OO.[K+].[K+].[O]=[V]`, for which the inhibition was 47%.

With `O=C(O)c1ccc(O)cn1.OO.[O]=[V]`, the inhibition is 51%.

Regarding `CN(N=O)c1ccc(O)c(O)c1`, the inhibition was 33%.

For the compound `NC1=NC(=O)/C(=C/C=C/c2ccc([N+](=O)[O-])o2)S1`, the inhibition was 33%.

On to `O=C([O-])c1ccccn1.OO.OO.[K+].[K+].[O]=[V]`, for which the inhibition is 36%.

Source of the values: PubChem BioAssay AID406 (SGCOxCompounds, 2006).
